Measured values from patent US7713994B2 (Wyeth LLC, priority 2005, dated 2010).

Columns and labels:
[1] = target: T1, cyclin D1/cdk 4 enzyme (Homo sapiens, UniProt P11802); assay: CDK4 ELISA kinase assay (phospho-Rb ser 795 detection); assay type: biochemical; conditions: In Vitro Enzyme Assays, 200 μM ATP, read-out: CDK4 IC50
T1 construct: made in house; host or cells: Sf9 insect cells, recombinant baculovirus
Procedure, shortened: (§1)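 Sf9-derived cyclin/CDK, 200 μM ATP, immobilized GST-Rb; 30° C/1 h. Detection: phospho-Ser795 Ab, HRP, TMB, OD450.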

[2] = target: T2, cyclin E/CDK2 enzyme (Homo sapiens, UniProt P24941); assay: CDK2 ELISA kinase assay (phospho-Rb ser 795 detection); assay type: biochemical; conditions: In Vitro Enzyme Assays, read-out: CDK2 IC50
T2 construct: made in house; host or cells: Sf9 insect cells, recombinant baculovirus
Procedure, shortened: as §1

[3] = target: T3, cyclin B/CDK1 enzyme (Homo sapiens, UniProt P06493); assay: CDK1 ELISA kinase assay (phospho-Rb ser 795 detection); assay type: biochemical; conditions: In Vitro Enzyme Assays, read-out: CDK1 IC50
T3 construct: purchased New England BioLabs; host or cells: Sf9 insect cells, recombinant baculovirus
Procedure, shortened: as §1

[4] = test system: BT474; assay: Cytotoxicity assay (SRB), BT474; assay type: cell-based; conditions: Homo sapiens, BT-474, 144 h, BT474 cells, SRB, 6 days; read-out: In Vitro Cellular Activity IC50 BT474
Procedure, shortened: (§2)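 Cells grown in RPMI 1640 with 5% FBS were treated with compound for three days (HCT-116, LoVo, MCF-7) or six days (BT474). Viable cell mass was quantified by sulforhodamine B staining of TCA-fixed protein and read at 540 nm.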

[5] = test system: HCT-116; assay: Cytotoxicity assay (SRB), HCT-116; assay type: cell-based; conditions: Homo sapiens, HCT-116, 72 h, HCT116 cells, SRB, three days; read-out: In Vitro Cellular Activity IC50 HCT116
Procedure, shortened: as §2

[6] = test system: LoVo; assay: Cytotoxicity assay (SRB), LoVo; assay type: cell-based; conditions: Homo sapiens, LoVo, 72 h, LoVo cells, SRB, three days; read-out: In Vitro Cellular Activity IC50 LOVO
Procedure, shortened: as §2

[7] = test system: MCF-7; assay: Cytotoxicity assay (SRB), MCF-7; assay type: cell-based; conditions: Homo sapiens, MCF7, 72 h, MCF-7 cells, SRB, three days; read-out: In Vitro Cellular Activity IC50 MCF-7
Procedure, shortened: as §2

[8] = test system: SK-UT-1B; assay: In Vitro Cellular Activity (Table III), SK-UT-1B; assay type: cell-based; conditions: Homo sapiens, Skut1B; SK-UT-1B cells

T1 sequence (P11802 whole entry, species assumed): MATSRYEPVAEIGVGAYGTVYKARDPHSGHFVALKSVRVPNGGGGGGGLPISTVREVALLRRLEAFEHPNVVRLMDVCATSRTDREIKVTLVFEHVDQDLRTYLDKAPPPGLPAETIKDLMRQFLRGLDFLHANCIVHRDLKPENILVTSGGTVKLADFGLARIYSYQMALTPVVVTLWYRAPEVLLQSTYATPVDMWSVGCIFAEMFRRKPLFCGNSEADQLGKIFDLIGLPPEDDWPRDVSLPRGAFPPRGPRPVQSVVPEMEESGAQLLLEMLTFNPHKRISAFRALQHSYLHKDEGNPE
T1 sequence (P24385 whole entry partner, species assumed): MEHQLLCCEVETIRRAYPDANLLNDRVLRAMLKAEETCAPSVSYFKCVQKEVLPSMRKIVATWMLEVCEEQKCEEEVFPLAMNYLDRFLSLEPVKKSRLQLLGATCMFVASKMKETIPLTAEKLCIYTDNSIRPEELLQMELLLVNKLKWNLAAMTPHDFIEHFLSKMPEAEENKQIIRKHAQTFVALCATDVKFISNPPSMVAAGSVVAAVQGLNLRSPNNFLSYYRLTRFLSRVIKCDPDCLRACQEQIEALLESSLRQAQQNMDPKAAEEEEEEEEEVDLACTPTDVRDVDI
T3 sequence (P06493 whole entry): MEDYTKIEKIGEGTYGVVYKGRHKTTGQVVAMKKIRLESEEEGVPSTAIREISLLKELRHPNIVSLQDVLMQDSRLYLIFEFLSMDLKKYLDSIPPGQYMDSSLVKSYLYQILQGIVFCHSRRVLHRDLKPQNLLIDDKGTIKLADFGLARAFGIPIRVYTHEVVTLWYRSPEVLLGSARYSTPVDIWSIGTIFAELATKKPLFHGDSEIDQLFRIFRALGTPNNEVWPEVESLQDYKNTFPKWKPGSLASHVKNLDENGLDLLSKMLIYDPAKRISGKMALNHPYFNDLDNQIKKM
T3 sequence (P14635 whole entry partner): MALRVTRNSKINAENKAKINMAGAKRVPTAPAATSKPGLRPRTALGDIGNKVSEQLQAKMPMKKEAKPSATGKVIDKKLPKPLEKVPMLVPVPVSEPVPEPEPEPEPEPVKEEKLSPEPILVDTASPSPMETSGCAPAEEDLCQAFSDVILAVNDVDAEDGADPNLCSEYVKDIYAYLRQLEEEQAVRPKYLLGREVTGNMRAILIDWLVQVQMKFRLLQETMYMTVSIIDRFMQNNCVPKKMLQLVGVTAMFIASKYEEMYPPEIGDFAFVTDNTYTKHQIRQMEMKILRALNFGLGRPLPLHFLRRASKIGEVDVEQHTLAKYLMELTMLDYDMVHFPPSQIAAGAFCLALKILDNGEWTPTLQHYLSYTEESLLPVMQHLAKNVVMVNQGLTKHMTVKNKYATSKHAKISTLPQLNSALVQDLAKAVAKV

Compound | IC50 [1] | IC50 [2] | IC50 [3] | IC50 [4] | IC50 [5] | IC50 [6] | IC50 [7] | IC50 [8]
O=C1NC(=O)c2ccccc2/C1=C/Nc1ccc(N2CCOCC2)cc1 [Example 6, (4Z)-4-{[(4-Morpholin-4-ylphenyl)amino]methylene}isoquinoline-1,3(2H,4H)-dione] | > 50 µM | > 29 µM | > 29 µM | > 50 µM | > 50 µM | > 50 µM | > 50 µM | 18.3 µM
COc1ccc(/C=C2/C(=O)NC(=O)c3ccccc32)cc1OC [Example 12, (4E)-4-(3,4-dimethoxybenzylidene)isoquinoline-1,3(2H,4H)-dione] | > 50 µM | > 32 µM | > 32 µM | > 50 µM | 2.1 µM | 5.4 µM | 14.5 µM | > 32 µM
O=C1NC(=O)c2ccccc2/C1=C/Nc1ccc(CN2CCOCC2)cc1 [Example 19, (4Z)-4-({[4-(Morpholin-4-ylmethyl)phenyl]amino}methylene)isoquinoline-1,3(2H,4H)-dione] | 10.7 µM | 21.6 µM | > 27 µM | – | 20 µM | – | 15.9 µM | 21.4 µM
O=C1NC(=O)c2ccccc2/C1=C/Nc1cccc(CCN2CCCC2)c1 [Example 22, (4Z)-4-({[3-(2-Pyrrolidin-1-ylethyl)phenyl]amino}methylene)isoquinoline-1,3(2H,4H)-dione] | – | – | – | 21 µM | 11 µM | 19 µM | 10 µM | 5.4 µM
CN(C)Cc1ccc(N/C=C2\C(=O)NC(=O)c3ccccc32)cc1 [Example 25, (4Z)-4-[({4[(Dimethylamino)methyl]phenyl}amino)methylene]isoquinolin-1,3(2H,4H)-dione] | 6.6 µM | 22.7 µM | > 29 µM | – | 11.5 µM | – | 5.6 µM | 16.2 µM
CN1CCN(c2ccc(N/C=C3\C(=O)NC(=O)c4ccc(Br)cc43)cc2)CC1 [Example 27, (4Z)-6-Bromo-4-({[4-(4-methylpiperazin-1-yl)phenyl}amino}methylene)isoquinoline-1,3(2H,4H)-dione] | 1.4 µM | > 50 µM | > 50 µM | 3.1 µM | 3.1 µM | 3.8 µM | 3 µM | 3.6 µM
CN1CCN(c2ccc(N/C=C3\C(=O)NC(=O)c4ccc([N+](=O)[O-])cc43)cc2)CC1 [Example 33, (4Z)-6-Nitro-4-({[4-(4-methylpiperazin-1-yl)phenyl}amino}methylene)isoquinoline-1,3(2H,4H)-dione] | 11 µM | > 50 µM | 7.2 µM | 5.2 µM | 3.3 µM | 3.2 µM | 11 µM | 3.3 µM
CN1CCN(c2ccc(N/C=C3\C(=O)NC(=O)c4cc(Br)ccc43)cc2)CC1 [Example 45, (4Z)-7-Bromo-4-({[4-(4-methylPiperzin-1-yl)phenyl]amino}methylene)isoquinoline-1,3(2H,4H)-dione] | – | 47 µM | > 50 µM | 19 µM | 5 µM | 33 µM | 18.8 µM | 31 µM
